Results: patent US20050101595A1, “N-containing cycloalkyl-substituted amino-thiazole derivatives and pharmaceutical compositions for inhibiting cell proliferation and methods for their use” (PFIZER INC., priority 2003, published 2005)
Where two headings read alike, the source gives them in different places.

Test system: HCT-116 cell line
Assay: Inhibition of cell growth, tetrazolium salt (MTT) assay
Format: cell-based
Details: for IC50 / inhibition at 0.25 µM: Homo sapiens; for IC50: HCT-116, 120 h, MTT, three to five days, read-out: HCT-116 IC50; for inhibition at 0.25 µM: HCT-116, HCT116 cells, read-out: % Inhibition HCT116 @ 250 nM
Protocol: Inhibition of Cell Growth: Assessment of Cytotoxicity:
Inhibition of cell growth was measured using the tetrazolium salt assay, which is based on the ability of viable cells to reduce 3-(4,5-dimethylthiazol-2-yl)-2,5-[2H]-diphenyltetrazolium bromide (MTT) to formazan (Mossman, Journal of Immunological Methods, vol. 65 (1983), pp. 55-58). The water-insoluble purple formazan product was then detected spectrophotometrically. The HCT-116 cell line was used as a representative cancer cell line and grown in 96-well plates. Cells were plated in McCoy's 5A Medium at a volume of 135 μl/well. Plates were incubated for four hours before addition of inhibitor compounds. Different concentrations of inhibitor compounds were added in 0.5% (v/v) dimethylsulfoxide (15 μLuwell), and cells were incubated at 37° C. (5% CO2) for three to five days. At the end of the incubation, MTT was added to a final concentration of 0.2 mg/mL, and cells were incubated for 4 hours more at 37° C. After centrifugation of the plates and removal of medium, the absorbance of the formazan (solubilized in dimethylsulfoxide) was measured at 540 nm. […] All results were compared to control cells treated only with 0.5% (v/v) dimethylsulfoxide.

Nc1nc(NC2CCN(S(=O)(=O)CCNCc3c(F)cccc3F)CC2)sc1C(=O)c1c(F)cccc1F [Example K50, (4-Amino-2-{1-[2-(2,6-difluoro-benzylamino)-ethanesulfonyl]-piperidin-4-ylamino}-thiazol-5-yl)-(2,6-difluoro-phenyl)-methanone]
IC50 (first HCT-116 column (c4)): 200 nM
IC50 (second HCT-116 column (c5)): 500 nM

Nc1nc(NC2CCN(S(=O)(=O)CCNC3CCC3)CC2)sc1C(=O)c1c(F)cccc1F [Example S59]
inhibition at 0.25 µM (compound at 250 nM): 40%

CC(C)C(NCCS(=O)(=O)N1CCC(Nc2nc(N)c(C(=O)c3c(F)cccc3F)s2)CC1)C(C)C [Example S135]
inhibition at 0.25 µM (compound at 250 nM): 100%

Nc1nc(NC2CCN(S(=O)(=O)CCNCc3ccncc3)CC2)sc1C(=O)c1c(F)cccc1F [Example S83]
inhibition at 0.25 µM (compound at 250 nM): 6%

C=CC(O)CN(CCC)CCS(=O)(=O)N1CCC(Nc2nc(N)c(C(=O)c3c(F)cccc3F)s2)CC1 (stereo not shown) [Example S47]
inhibition at 0.25 µM (compound at 250 nM): 8%

CC(NCCS(=O)(=O)N1CCC(Nc2nc(N)c(C(=O)c3c(F)cccc3F)s2)CC1)c1ccc(F)cc1 (stereo not shown) [Example S144]
inhibition at 0.25 µM (compound at 250 nM): 43%

Nc1nc(NC2CCN(S(=O)(=O)CCNCc3cc(F)ccc3F)CC2)sc1C(=O)c1c(F)cccc1F [Example S125]
inhibition at 0.25 µM (compound at 250 nM): 49%

Nc1nc(NC2CCN(S(=O)(=O)CCNCCOc3ccccc3)CC2)sc1C(=O)c1c(F)cccc1F [Example S149]
inhibition at 0.25 µM (compound at 250 nM): 36%

Nc1nc(NC2CCN(S(=O)(=O)CCNCCOCCO)CC2)sc1C(=O)c1c(F)cccc1F [Example S147]
inhibition at 0.25 µM (compound at 250 nM): 23%

Nc1nc(NC2CCN(S(=O)(=O)CCN3CCCC(CO)C3)CC2)sc1C(=O)c1c(F)cccc1F (stereo not shown) [Example S23]
inhibition at 0.25 µM (compound at 250 nM): 18%

Nc1nc(NC2CCN(S(=O)(=O)CCN3CCCCCC3)CC2)sc1C(=O)c1c(F)cccc1F [Example S7]
inhibition at 0.25 µM (compound at 250 nM): 22%

Nc1nc(NC2CCN(S(=O)(=O)CCN[C@H]3CCOC3=O)CC2)sc1C(=O)c1c(F)cccc1F [Example S153]
inhibition at 0.25 µM (compound at 250 nM): 100%

Nc1nc(NC2CCN(S(=O)(=O)CCN3CCC3)CC2)sc1C(=O)c1c(F)cccc1F [Example S174]
inhibition at 0.25 µM (compound at 250 nM): 10%

C#CC(CC)(CC)NCCS(=O)(=O)N1CCC(Nc2nc(N)c(C(=O)c3c(F)cccc3F)s2)CC1 [Example S175]
inhibition at 0.25 µM (compound at 250 nM): 99%

Nc1nc(NC2CCN(S(=O)(=O)CCN3CCC(CCO)CC3)CC2)sc1C(=O)c1c(F)cccc1F [Example S25]
inhibition at 0.25 µM (compound at 250 nM): 10%

C[C@H](NCCS(=O)(=O)N1CCC(Nc2nc(N)c(C(=O)c3c(F)cccc3F)s2)CC1)c1ccccc1 [Example K47]
IC50 (first HCT-116 column (c4)): 100 nM
IC50 (second HCT-116 column (c5)): 250 nM

CC(C)N(CCS(=O)(=O)N1CCC(Nc2nc(N)c(C(=O)c3c(F)cccc3F)s2)CC1)C1CCCCC1 [Example S8]
inhibition at 0.25 µM (compound at 250 nM): 91%

Nc1nc(NC2CCN(S(=O)(=O)CCN3CCC[C@@H]3CO)CC2)sc1C(=O)c1c(F)cccc1F [Example S54]
inhibition at 0.25 µM (compound at 250 nM): 16%

N#CCNCCS(=O)(=O)N1CCC(Nc2nc(N)c(C(=O)c3c(F)cccc3F)s2)CC1 [Example S160]
% Inhibition HCT116 @ 250 nM (HCT116 cells, compound at 250 nM, 0.25 µM): 30%

CCN(CCS(=O)(=O)N1CCC(Nc2nc(N)c(C(=O)c3c(F)cccc3F)s2)CC1)C1CCCCC1 [Example S10]
inhibition at 0.25 µM (compound at 250 nM): 62%

Nc1nc(NC2CCN(S(=O)(=O)CCNCc3ccco3)CC2)sc1C(=O)c1c(F)cccc1F [Example S72]
inhibition at 0.25 µM (compound at 250 nM): 19%

Nc1nc(NC2CCN(S(=O)(=O)CCNCc3cccc(F)c3)CC2)sc1C(=O)c1c(F)cccc1F [Example S99]
inhibition at 0.25 µM (compound at 250 nM): 43%

Cc1ccc(CCNCCS(=O)(=O)N2CCC(Nc3nc(N)c(C(=O)c4c(F)cccc4F)s3)CC2)cc1 [Example S118]
inhibition at 0.25 µM (compound at 250 nM): 25%

CC(C)CNCCS(=O)(=O)N1CCC(Nc2nc(N)c(C(=O)c3c(F)cccc3F)s2)CC1 [Example S111]
inhibition at 0.25 µM (compound at 250 nM): 54%

CC(C)(C)N(CCO)CCS(=O)(=O)N1CCC(Nc2nc(N)c(C(=O)c3c(F)cccc3F)s2)CC1 [Example S3]
inhibition at 0.25 µM (compound at 250 nM): 25%

CC(C)CN(C)CCS(=O)(=O)N1CCC(Nc2nc(N)c(C(=O)c3c(F)cccc3F)s2)CC1 [Example S38]
inhibition at 0.25 µM (compound at 250 nM): 55%
